How the values were obtained:
[1] = tested on: platelets in peripheral blood; assay: In vivo platelet production in mice, once a day for five days (Examples 13 and 16); set-up: species or system Balb/c mice; conditions: sixth day
Protocol: (§1) In Examples 7-10 and 13-17, the PEGylated hIL-6 polypeptides of the present invention were dissolved in PBS containing 0.1% normal mouse serum. The concentration of the solutions was adjusted so that the final volume administered was 100 μl.
The hIL-6 produced in Example 4 or its PEGylated derivatives produced in Examples 11 and 12 were administered subcutaneously to four Balb/c mice (8 weeks old, female) once a day for five days. Control mice were administered with the vehicle. Blood samples were taken on the sixth day and platelets in peripheral blood were counted.
The PEGylated hIL-6 Fr120'-2 was administered to five mice once a day for five days at a dose of 1 μg/mouse and blood samples were taken on the sixth day as described in Example 13.

[2] = Castell et al. 1988; cited from earlier work
[3] = Acute toxicity (Example 17); type: in vivo, Balb/c mice; conditions: for deaths during the ten day period after the administration: 1, 5, or 10 mg/kg s.c.; for acute LD50: s.c., ten day observation, 14400 min
Protocol: as §1
The acute toxicity of PEGylated hIL-6 was investigated. The hIL-6 of Example 4 or its PEGylated derivatives (Fr45-2, Fr100-2, and Fr120-2), produced in Examples 4, 11, and 12, were administered subcutaneously to five Balb/c mice (6 weeks old, male, 21-23 g weight) at a dose of either 1, 5, or 10 mg/kg weight (as polypeptide).

[4] = Table 6, 0.5 μg/mouse/injection s.c. once a day for five days
[5] = Table 6, 1 μg/mouse/injection s.c. once a day for five days
[6] = Table 6, 5 μg/mouse/injection s.c. once a day for five days
[7] = Table 6, 10 μg/mouse/injection s.c. once a day for five days
[8] = Table 7, 0.1 μg/mouse/injection s.c. once a day for five days
[9] = Table 7, 0.5 μg/mouse/injection s.c. once a day for five days
[10] = Table 7, 1 μg/mouse/injection s.c. once a day for five days
[11] = Table 7, 5 μg/mouse/injection s.c. once a day for five days
[12] = Table 7, 10 μg/mouse/injection s.c. once a day for five days

Substance | Number of platelets (% of control) [1, 4] | Number of platelets (% of control) [1, 5] | Number of platelets (% of control) [1, 6] | Number of platelets (% of control) [1, 7] | Number of platelets (% of control) [1, 8] | Number of platelets (% of control) [1, 9] | Number of platelets (% of control) [1, 10] | Number of platelets (% of control) [1, 11] | Number of platelets (% of control) [1, 12] | in vivo half-life in blood [2] | deaths during the ten day period after the administration [3] | acute LD50 [3]
Fr100-4: fraction of PEG(10000)IL-6, average 9.4 free amino groups per molecule | 138.7 % of control | 142.5 % of control | 226.5 % of control | 203.2 % of control | – | – | – | – | – | – | – | –
Fr100-3: fraction of PEG(10000)IL-6, average 8.6 free amino groups per molecule | 113.7 % of control | 141.1 % of control | 212.7 % of control | 204.4 % of control | – | – | – | – | – | – | – | –
Fr120-3: fraction of PEG(12000)IL-6, average 8.7 free amino groups per molecule | – | – | – | – | 170.1 % of control | 205.9 % of control | 242.7 % of control | 243.1 % of control | 221.4 % of control | – | – | –
IL-6: interleukin-6, multi-functional cytokine | – | – | – | – | – | – | – | – | – | very short | – | –
Fr120-1: fraction of PEG(12000)IL-6, average 5.2 free amino groups per molecule | – | – | – | – | 141.3 % of control | 215.5 % of control | 221.5 % of control | 246.3 % of control | 201.3 % of control | – | – | –
Fr100-5: fraction of PEG(10000)IL-6, average 10.0 free amino groups per molecule | 111.3 % of control | 142.8 % of control | 225.9 % of control | 202.4 % of control | – | – | – | – | – | – | – | –
Fr120-4: fraction of PEG(12000)IL-6, average 9.2 free amino groups per molecule | – | – | – | – | 161.5 % of control | 203.4 % of control | 221.4 % of control | 229.0 % of control | 200.4 % of control | – | – | –
Fr100-2: fraction of PEG(10000)IL-6, average 7.4 free amino groups per molecule | 107.9 % of control | 148.9 % of control | 205.9 % of control | 250.8 % of control | – | – | – | – | – | – | None of the mice was observed to die | over 10 mg/kg weight
Fr100-1: fraction of PEG(10000)IL-6, average 5.3 free amino groups per molecule | – | 100.0 % of control | – | 211.1 % of control | – | – | – | – | – | – | – | –
Fr120-2: fraction of PEG(12000)IL-6, average 7.6 free amino groups per molecule | – | – | – | – | 167.4 % of control | 227.8 % of control | 233.2 % of control | 244.3 % of control | 213.2 % of control | – | None of the mice was observed to die | over 10 mg/kg weight
Fr120-5: fraction of PEG(12000)IL-6, average 9.8 free amino groups per molecule | – | – | – | – | 154.1 % of control | 191.5 % of control | 225.4 % of control | 224.8 % of control | 235.9 % of control | – | – | –
